Like-named read-outs stand apart in the source and are kept apart here.
Experiments:
[1] = test system: S. cerevisiae Δrom1; assay: MIC against deletion mutant; format: cell-based; conditions: Rho1-GEF
Description: (§1) Occidiofungin was purified from a liquid culture of Burkholderia contaminans MS14 as previously described ([21]). MIC susceptibility testing was performed according to the CLSI M27-A3 and M38-A2 standards for the susceptibility testing of yeasts and filamentous fungi, respectively. S. cerevisiae deletion mutants were obtained from the commercially available BY4741 deletion library (Thermo Scientific).

[2] = test system: S. cerevisiae Δsac6; assay: MIC against deletion mutant; format: cell-based; conditions: Actin bundling, Fimbrin
Description: as §1

[3] = test system: C. albicans (ATCC 66027); assay: DNA (nuclear) segregation assay, DAPI; format: cell-based; conditions: for percentage of cells in category, column 2: untreated 10.3 ± 3.8; for percentage of cells in category, column 4: untreated 1.0 ± 0.4; for percentage of cells in category, column 3: untreated 26.6 ± 5.6
Description: (§2) The hyphal induction assay was performed as previously reported with minor modifications ([58]). Candida albicans strain ATCC 66027 was grown in yeast extract-peptone-dextrose (YPD) medium at 30°C for 48 h to reach saturation with an OD600 of 17 to 19. Cells were diluted into fresh Spider medium (1% nutrient broth, 1% mannitol, 0.2% K2HPO4) to obtain an OD600 of 0.05 (∼0.5 × 10^6 to 1 × 10^6 cells/ml) and incubated at 37°C with shaking to induce hyphal formation. Immediately prior to the 37°C incubation, occidiofungin (1 µg/ml; 0.5× MIC) or an equal volume of DMSO was added to the cultures. Aliquots were removed at 0-, 1-, 2-, 4-, and 6-h time points and fixed in 3.7% formaldehyde for later analysis of cell morphology by light microscopy. More than 200 cells were examined for each time point, and cells were scored as having either a yeast or filamentous form, with cells showing any outgrowth considered filamentous. DNA segregation assays were performed using a mid-log culture of S. cerevisiae (BY4743, diploid) and C. albicans (ATCC 66027). The cultures were diluted in fresh YPD medium to obtain OD600s of 0.095 (∼1 × 10^6 to 1.5 × 10^6 cells/ml) and 0.05 (0.5 × 10^6 to 0.8 × 10^6 cells/ml), respectively. A blank vehicle control (DMSO) or occidiofungin (1 µg/ml; 0.5× MIC) was added, and the cultures were placed at 30°C with shaking. Samples were removed at 0.5, 1, and 2 h, and the cells fixed by adding formaldehyde (3.7%). The cells were washed in phosphate-buffered saline (PBS) and permeabilized by adding an equivalent volume of PBS containing 0.2% Triton X-100 for 30 min at room temperature. The cells were washed thrice in PBS, added to concanavalin A-treated glass slides, and overlaid with Vectashield plus DAPI (4′,6-diamidino-2-phenylindole). Images were viewed using a Nikon 50i fluorescence microscope with a 100× oil immersion objective and DAPI filter. Cells were scored on the basis of bud morphology and DNA location. One-way analyses of variance (ANOVAs) with post hoc Tukey’s honestly significant difference (HSD) testing were used to determine statistically significant differences in the distributions between treated and untreated cells. In addition, FM-464 uptake assays were used to observe endocytosis. Three 1-ml aliquots of S. pombe (OD600 of 0.6 to 0.8) were treated with 1 μl DMSO, 0.5 μg/ml (0.5× MIC), or 1 μg/ml (1× MIC) of native occidiofungin for 30 min at 30°C. The cells were washed thrice with PBS and resuspended in YPD medium containing […] FM-464 (Thermo Fisher Scientific). The cells were incubated for 60 min at 30°C, followed by two washes in PBS before visualizing on an Olympus FV1000 confocal microscope with a 40×/0.9 dry objective. Lastly, actin polymerization and depolymerization assays were performed using the Actin polymerization biochem kit (catalog number BK003; Cytoskeleton, Inc.) according to the manufacturer’s instructions.

[4] = test system: S. cerevisiae (BY4743, diploid); assay: DNA (nuclear) segregation assay, DAPI; format: cell-based; conditions: for percentage of cells in category, column 2 / percentage of cells in category, column 4 / percentage of cells in category, column 3 / percentage of cells in category, column 1: 0.5X MIC, 30 °C, two experiments; for percentage of cells in category, column 2: untreated 3.9 ± 1.2; for percentage of cells in category, column 4: untreated 1.4 ± 0.5; for percentage of cells in category, column 3: untreated 13.7 ± 2.5; for percentage of cells in category, column 1: untreated 80.4 ± 2.6
Description: as §2

[5] = cited from earlier work
Description: Occidiofungin is a nonribosomally synthesized glycolipopeptide produced by the soil bacterium Burkholderia contaminans MS14 ([21]). It is a cyclic peptide with a base mass of 1,200 Da (Fig. 1) ([21]). Occidiofungin has a wide spectrum of activities against filamentous and nonfilamentous fungi and minimal toxicity in an animal system ([21], [22]). […] Occidiofungin, on the other hand, is well tolerated at 5 mg/kg or 20 mg/kg when administered intravenously or subcutaneously, respectively ([22], [25]). This dose is much higher than the MIC of occidiofungin against several fungal pathogens. ...

[6] = 0.5X MIC, 0.5 h, 30 °C, two experiments
[7] = 0.5X MIC, 1 h, 30 °C, two experiments, * p < 0.05
[8] = subinhibitory concentration, within 30 min

Substance: occidiofungin
- MIC [1]: 0.25 µg/mL
- MIC [2]: 0.25 µg/mL
- percentage of cells in category, column 1 [3]: 58.1 ± 6.6%
- percentage of cells in category, column 2 ([3]; 0.5X MIC, 0.5 h, 30 °C, two experiments, * p < 0.05): 1 ± 0.7%
- percentage of cells in category, column 4 [3, 6]: 5.6 ± 0.4%
- percentage of cells in category, column 3 [3, 6]: 35.3 ± 6.8%
- percentage of cells in category, column 4 [3, 7]: 8.1 ± 2.8%
- percentage of cells in category, column 2 [3, 7]: 0.9 ± 0.1%
- percentage of cells in category, column 3 ([3]; 0.5X MIC, 1 h, 30 °C, two experiments): 28.1 ± 1.3%
- percentage of cells in category, column 1 ([3]; 0.5X MIC, 1 h, 30 °C, two experiments, untreated 62.1 ± 8.8): 62.9 ± 4.2%
- percentage of cells in category, column 2 ([3]; 0.5X MIC, 2 h, 30 °C, two experiments, * p < 0.05): 0.4 ± 0.6%
- percentage of cells in category, column 4 ([3]; 0.5X MIC, 2 h, 30 °C, two experiments, ** p < 0.01): 11.4 ± 3.8%
- percentage of cells in category, column 3 ([3]; 0.5X MIC, 2 h, 30 °C, two experiments): 26.3 ±12.1%
- percentage of cells in category, column 1 ([3]; 0.5X MIC, 2 h, 30 °C, two experiments, untreated 62.1 ± 8.8): 61.9 ± 7.7%
- binucleated cells [3, 8]: more binucleated cells
- percentage of cells in category (bud morphology and DNA localization), column 1 [4]: 66.9 ± 6.8%
- percentage of cells in category, column 2 ([4]; 0.5 h, * p < 0.05): 0.2 ± 0.3%
- percentage of cells in category, column 4 ([4]; 0.5 h, ** p < 0.01): 12.3 ± 0.6%
- percentage of cells in category, column 3 ([4]; 0.5 h): 20.5 ± 6.5%
- percentage of cells in category, column 2 ([4]; 1 h, * p < 0.05): 0.4 ± 0.1%
- percentage of cells in category, column 3 ([4]; 1 h, * p < 0.05): 25.4 ± 4.7%
- percentage of cells in category, column 4 ([4]; 1 h, ** p < 0.01): 15.1 ± 2.9%
- percentage of cells in category, column 1 ([4]; 1 h, ** p < 0.01): 59.1 ± 7.7%
- percentage of cells in category, column 2 ([4]; 2 h, * p < 0.05): 0.6 ± 0.8%
- percentage of cells in category, column 1 ([4]; 2 h, * p < 0.05): 63.5 ± 2.2%
- percentage of cells in category, column 4 ([4]; 2 h, ** p < 0.01): 13.3 ± 0.7%
- percentage of cells in category, column 3 ([4]; 2 h): 22.7 ± 2.3%
- binucleated cells [4, 8]: more binucleated cells
- blood cells and blood chemistry [5]: no serious signs of toxicity
- toxicity at 5 mg/kg intravenous ([5]; intravenous, 5 mg/kg, mice): minimal induced toxicity
- well tolerated dose, intravenous ([5]; intravenous): 5 mg/kg
- blood chemistry and histopathology ([5]; mice, 5 mg/kg intravenous): a transient nonspecific stress response with no damage to organ tissues
- well tolerated dose, subcutaneous ([5]; subcutaneous): 20 mg/kg

Source: PMC6325233, “A Novel Actin Binding Drug with In Vivo Efficacy” (Antimicrobial Agents and Chemotherapy, 2018)
